Experiment: gradient 5% acetonitrile 3 min, to 50% in 2 min, to 85% in 15 min, held 3 min, 100 µL/min
Details: column: Zorbax Extend-C18 2.1 x 50 mm; eluents: water / acetonitrile, 0.1% formic acid
Procedure, shortened: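 Values are retention times taken from adduct peaks that software picked and an analyst inspected. The pure standards were run as mixtures of ~100 molecules on HPLC linked to a quadrupole time-of-flight mass spectrometer, in positive and negative ionization mode. A Zorbax Extend-C18 column (2.1 × 50 mm, 1.8 μm) was used at 100 μL/min with water and acetonitrile, each including 0.1% formic acid.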

SMILES	RP-LC retention time
Cc1ccc(NS(=O)(=O)c2cc(-c3nc(C)cs3)sc2C)c(C)c1	1090 s
CCOC(=O)CCNC(=O)N1CCC(OC2CCN(Cc3ccccc3)CC2)CC1	607 s
O=C(NC1CCN(c2cc(-c3ccc(F)cc3)[nH]n2)C1)c1ccc(Br)cc1 (configuration not stated)	864 s
Cc1cc(C)c(S(=O)(=O)N2CCC(C(=O)NCc3csc(-c4ccccc4)n3)CC2)c(C)c1	1050 s
CC1CCCCN1Cc1nc(-c2ccc(N3CCSCC3)nc2)no1 (configuration not stated)	642 s
O=C(CCc1cccc2[nH]ccc12)N1CCN(c2cccc(Cl)c2)CC1	980 s
O=C(Nc1ccc2c(c1)OCCO2)c1cc2n(n1)CCCN(Cc1ccc(F)cc1)C2=O	863 s
Cc1cc(C)c2c(N3CCSCC3)nc(C(=O)NCC3CC3)nc2n1	653 s
Cc1nc(C(=O)Nc2ccc(Cl)cc2C)c(C)o1	1030 s
CC1CCCCN1CCCNC(=O)Cn1ccc2cc(S(=O)(=O)N3CCCCC3)ccc21 (configuration not stated)	670 s
CCN(CC)CCNC(=O)Cc1noc2ccc(C)cc12	604 s
CCOc1ccccc1C(=O)NC1CCN(c2cc(-c3ccccc3)[nH]n2)C1 (configuration not stated)	684 s
CCn1c(=O)sc2cc(S(=O)(=O)N3CCC(C(=O)N4CCN(C)CC4)CC3)ccc21	600 s
COC(=O)c1c(C)[nH]c(C(=O)N2CCC(CC(=O)NCc3ccccc3)CC2)c1C	716 s
O=C(NCCCn1cccc1)C1COc2ccccc2O1 (configuration not stated)	803 s
COc1ccc(NC(=O)Cn2c(C)cc(-c3nnc(C4CC4)o3)c2C)cc1	779 s
CCc1cccc(C)c1NS(=O)(=O)c1ccc(-c2c(C)noc2C)cc1	1020 s
CN1C(=O)c2cccnc2Sc2cc(NC(=O)c3cccc(Br)c3)ccc21	876 s
CCc1nc(-c2ccnc(N3CCOCC3)c2)no1	678 s
Cc1ccc(N2CC(c3noc(-c4ccccc4)n3)CC2=O)cc1 (configuration not stated)	819 s
O=C(Cn1cnc(-c2noc(-c3ccccc3)n2)c1)NCc1ccccc1	803 s
Cc1c(N2C(=O)c3cccc4cccc(c34)C2=O)c(=O)n(-c2ccccc2)n1C	644 s
CC(=O)Nc1ccc(-c2noc(C3CCCN(C(=O)Cc4ccc(Br)cc4)C3)n2)cc1 (configuration not stated)	872 s

SMILES	RP-LC retention time
Cc1cc2c(=O)n(CC(=O)NCc3ccc(F)cc3)c3cccnc3n2n1	693 s
CCN1C(=O)c2cccnc2Sc2cc(NC(=O)c3cccc(C)c3)ccc21	870 s
CN1CCC(NC(=O)c2cccc3c2CCN3C(=O)c2ccc(F)cc2)CC1	602 s
Cc1nnc(C2CCCN(C(=O)c3ccc4nsnc4c3)C2)s1 (configuration not stated)	651 s
O=C(Cc1cccs1)Nc1cc(F)c2nc(N3CCOCC3)ccc2c1	793 s
O=C(Cc1cccs1)N1CCc2cc(-c3csc(C4CC4)n3)ccc21	1120 s
CO[C@@H](Cc1ccc(OCCc2nc(-c3ccccc3)oc2C)c2ccsc12)C(=O)O	1160 s
COc1cc(NS(=O)(=O)c2ccc3c(c2)-c2oncc2CO3)cc(OC)c1	884 s
Cc1ccccc1Oc1nccnc1N1CCCC(C(=O)NCc2cccc(Br)c2)C1 (configuration not stated)	1290 s
CC(C)c1cc(C(=O)Nc2ccccc2)no1	969 s
O=S(=O)(Nc1ccc(-c2ccc(N3CCCC3)nn2)cc1)c1ccc(Cl)s1	594 s
O=C(NCCOc1ccc(-c2ccccn2)nn1)c1ccco1	555 s
CCn1c(=O)c2ccnn2c2ccc(C(=O)O)cc21	662 s
Cc1ccccc1NC(=O)Cn1nc2c(N(C)C3CCCCC3)nccn2c1=O	745 s
CS(=O)(=O)N[C@H]1C[C@@H]2C[C@H]1CN2C(=O)c1ccc(C(F)(F)F)cc1	571 s
O=C(c1cnccn1)N1CCCC1c1nc(CCOCC2CC2)no1 (configuration not stated)	698 s
O=C(NC1CCCCCC1)C1c2ccccc2C(=O)N1Cc1cccnc1 (configuration not stated)	590 s
COc1ccc(CNC(=O)Cc2csc3nc(-c4ccc(OC)c(OC)c4)cn23)cc1OC	648 s
COc1ccc(N2CCN(c3cc(SCC(=O)Nc4cccc(Cl)c4C)ncn3)CC2)cc1	1060 s
O=C(c1ccccn1)N1CCN(C(=O)c2nnn3c2COC(c2ccccc2)C3)CC1 (configuration not stated)	717 s
CC1CCC(NC(=O)c2nnc(-c3ccc(S(=O)(=O)N4CCCCC4)cc3)o2)CC1 (configuration not stated)	1110 s
CNC(=O)c1cc(=O)[nH]c2c(C)cccc12	588 s
O=C(CCc1nc2ccccc2s1)NCC12CCCC=C1N(CC1CC1)C(=O)CC2 (configuration not stated)	863 s

SMILES	RP-LC retention time
O=C1CC(c2ccccc2)Oc2ccccc21 (configuration not stated)	932 s
COc1ccc(OC)c(NC(=O)Cn2c(-c3ccc(Cl)cc3)nc(C)cc2=O)c1	1220 s
CCN(Cc1cc(Nc2nc(C)cn3c(-c4cn[nH]c4)cnc23)sn1)C(C)(C)CO	682 s
CCOc1ccccc1-c1nn2c(CSc3ccccc3)nnc2s1	1120 s
COc1ccc(C2C(C(=O)NCc3ccccc3OC)c3ccccc3C(=O)N2C)cc1 (configuration not stated)	864 s
CCCC1c2nccn2CCCN1C(=O)c1ocnc1C (configuration not stated)	558 s
CCc1cccc(C)c1Nc1c(-c2ccc(SC)cc2)nc2ncccn12	916 s
CCc1ccc(CCN2C(=O)c3ccccc3C2=O)nc1	667 s
CCCC(NC(=O)c1ccc(C)cc1)C(=O)Nc1nc2ccccc2[nH]1 (configuration not stated)	716 s
O=C(Cc1csc2nc(-c3ccccc3)cn12)NCCc1ccc(Cl)cc1	806 s
CCOC(=O)C1CCN(C(=O)C2CCN(c3nnc(-c4ccc(OC)cc4)o3)CC2)CC1	792 s
O=C(CSc1nnc2ccccn12)Nc1nc(-c2ccccc2)ns1	695 s
COC(=O)c1ccc(NC(=O)N2CCN(c3nc4ccccc4nc3C(F)(F)F)CC2)cc1	1080 s
CCc1ccc(CNC(=O)C2(c3ccc(NC(C)=O)cc3)CCC2)cc1	827 s
C[C@H]1CC[C@]2(NC1)O[C@H]1C[C@H]3[C@@H]4CC[C@H]5C[C@@H](O)CC[C@]5(C)[C@H]4CC[C@]3(C)[C@H]1[C@@H]2C	776 s
Cc1cccc(-c2noc(Cn3ccn(-c4ccc(Cl)cc4)c(=O)c3=O)n2)c1	929 s
O=S(=O)(c1cc(-c2nnc(-c3ccc(F)cc3)o2)ccc1Cl)N1CCOCC1	984 s
COC(=O)c1ncn2c1C(=O)N(Cc1cccc(C)c1)C(C)(C(=O)NCc1ccccc1)C2 (configuration not stated)	759 s
CC(=O)n1nc(-c2ccccc2Cl)nc1N	729 s
Cc1cc(C)c2c(-n3cccc3)nn(CC(=O)NCc3cccc(Br)c3)c2n1	1020 s
Cc1cc(N2CCN(S(=O)(=O)c3ccc(Cl)c(Cl)c3)CC2)nc(NC2CCCCC2)n1	922 s

From the METLIN SMRT retention time set (Domingo-Almenara et al. 2019)
